Measurements reported in patent US20010048926A1, “SYNTHETIC PEPTIDE VACCINES FOR DENTAL CARIES” (priority 1992, published 2001).

How the values were obtained:
[1] = test system: inducing peptide construct; assay: ELISA of serum IgG antibody to the inducing (homologous) peptide construct in immunized rats; type: in vivo, Sprague Dawley rats; settings: for immunogenicity (percentage of animals responding and titer of responding sera): FIG. 1
Description: (§1) Immunogenicity of Peptides: Sprague Dawley CD strain 43 day-old male rats (Charles River Laboratories) were used for injection. Six groups of 4-5 rats were injected subcutaneously in the vicinity of the salivary glands with 50 μg each of GGY, AND, SAND or CAT peptide constructs, 10 μg of GTF, or sham-immunized with buffer alone. The initial injection included complete Freund adjuvant (CFA; Difco); two subsequent injections at 21-day intervals included incomplete Freund adjuvant. Animals were bled prior to injection and 14-21 days after each injection. Serum from coagulated and centrifuged blood was stored frozen at −20° C. until use.
(§2) ELISA: Serum IgG and salivary IgA antibodies were tested by enzyme-linked immunosorbent assay (ELISA). Polystyrene microtiter plates (Flow Laboratories) were coated with […] of each peptide construct or 0.5 μg of S. sobrinus GTF. Antibody activity was then measured by incubation with 1:100 to 1:10^6 dilutions of sera, or 1:4 to 1:32 dilutions of saliva. Plates were then developed for IgG antibody rabbit anti-rat IgG followed in sequence by alkaline phosphatase goat anti-rabbit IgG (Biosource Inc.) and p-nitrophenylphosphate (Sigma). A mouse monoclonal reagent to rat α chain (Zymed, South San Francisco, Calif.) was used with biotinylated goat anti-mouse IgG (TAGO, Inc., Burlingame, Calif.) and avidin-alkaline phosphatase (Cappel) to reveal levels of salivary IgA antibody to peptides. Reactivity was recorded as absorbance (A405 nm) in a micro plate reader (Biotek Instruments). Data are reported as absorbance (A405 nm), reciprocal titer, or as ELISA units (EU) which were calculated relative to the levels of appropriate reference sera or salivas from Sprague Dawley rats thrice immunized with the respective peptide construct. Dilutions of 1:12,800 and 1:6,400 (A405 nm approximately 1.0) were considered 100 EU for serum IgG to the GGY and AND constructs, respectively. Dilutions of 1:32 were considered 100 EU for salivary IgA to both GGY and AND constructs.
(§3) Two experiments were performed. Groups (n=11-12) of 23-26 day-old rats were subcutaneously (sc) injected in the salivary gland vicinity with (experiment 1) GGY (50 μg), AND (50 μg) or GTF(10 μg), or phosphate buffered saline (control animals), or (experiment 2) GGY (50 ;μg) or PBS. Each antigen was incorporated with complete Freund adjuvant in both experiments. Eight (experiment 1) or 14 (experiment 2) days later, rats were reinjected with PBS or with the same antigen and dose in incomplete Freund adjuvant. Six (experiment 1) or 12 (experiment 2) days after the second injection, animals were bled from the tail vein, and saliva was collected after injection of pilocarpine (1.0 mg/100 g body weight). Fourteen (experiment 1) or 11 (experiment 2) days after the second injection, all rats were orally infected with approximately 10^8 S. mutans for 3 consecutive days. Both experiments were terminated 63 days after initial infection.
(§4) Two experiments were performed to measure the effect of immunization with the eight-branched GGY and AND peptide constructs on experimental dental caries in the Sprague-Dawley rat. In the first experiment, groups of rats were immunized with GGY or AND peptide constructs. In the second experiment groups of rats were immunized only with the GGY peptide construct. Pre-infection sera and salivas were collected for antibody measurement in 39 day old rats in experiment 1 (6 days after the second injection) and 51 day old rats in experiment 2 (12 days after the second injection). In the GGY-immunized rat groups, IgG antibody levels to GGY (experiment 1=21.9+17.8 EU; experiment 2=108.0±4.0 EU) were elevated above those of the sham-immunized groups (experiment 1=1.7±0.2 EU; experiment 2=4.0±3.0 EU) in both experiments and reached statistical significance (p<0.002) in experiment 2.

[2] = test system: inducing peptide construct; assay: ELISA of salivary IgA antibody to the inducing (homologous) peptide construct in immunized rats; type: in vivo, Sprague Dawley rats; settings: for rats with significant levels of salivary IgA antibody: GGY- and AND-injected rats counted together
Description: as §1, §2, §3, §4

S. sobrinus GTF [3] = assay: ELISA of serum IgG antibody reacting with intact S. sobrinus GTF; type: in vivo; settings: 63 day sera, FIG. 3; for IgG antibody reactivity with intact S. sobrinus GTF: n=4-5 per group
Text: (§5) Glucosyltransferases: Glucosyltransferases (GTF) from S. sobrinus strain 6715 were purified from culture supernatants after bacterial growth in glucose-containing defined media, as described in Taubman et al. (J. Oral Pathol. 17:466-470 (1988)). Enzymes were separated from other culture supernatant proteins by affinity chromatography on Sephadex G-100 (Pharmacia Fine Chemicals), using 6M guanidine HCl as the eluting solvent. GTFs were then obtained from the guanidine HCl eluate by FPLC chromatography on Superose 6 (Pharmacia) using 6M guanidine for elution. GTF preparations contained a mixture of GTF-I, GTF-Sd, and GTF-Si.
as §1, §2

CAT peptide construct = biological target: T1, CAT peptide construct (Streptococcus mutans serotype c, UniProt P08987); assay: Cross-reactivity ELISA, plates coated with CAT peptide construct; type: binding; settings: day 63 sera; FIG. 4
T1 construct: residues 442-462 of S. mutans GTF-B; purchased Applied Diagnostics, Foster City, Calif; host or cells: chemical solid phase synthesis
Description: as §1
(§6) ELISA: Serum IgG and salivary IgA antibodies were tested by enzyme-linked immunosorbent assay (ELISA). Polystyrene microtiter plates (Flow Laboratories) were coated with […] of each peptide construct or 0.5 μg of S. sobrinus GTF. Antibody activity was then measured by incubation with 1:100 to 1:10^6 dilutions of sera, or 1:4 to 1:32 dilutions of saliva. […] Reactivity was recorded as absorbance (A405 nm) in a micro plate reader (Biotek Instruments). Data are reported as absorbance (A405 nm), reciprocal titer, or as ELISA units (EU) which were calculated relative to the levels of appropriate reference sera or salivas from Sprague Dawley rats thrice immunized with the respective peptide construct. […]

GGY peptide construct = biological target: T2, GGY peptide construct (Streptococcus mutans serotype c, UniProt P08987); assay: Cross-reactivity ELISA, plates coated with GGY peptide construct; type: binding; settings: day 63 sera; FIG. 4
T2 construct: GGY and AND were 19-mer peptides; purchased Applied Diagnostics, Foster City, Calif; host or cells: chemical solid phase synthesis
Description: as §1, §6

S. sobrinus GTF [4] = assay: Antibody inhibition of glucan synthesis (filter assay, 14C glucose incorporation into water-insoluble glucan); type: biochemical, S. sobrinus strain 6715
Text: as §5
Antibody Inhibition of Glucan Synthesis: Selected rat sera were evaluated for their ability to inhibit glucan synthesis catalyzed by S. sobrinus GTF, using a filter assay. Ten μl volumes of sera (1:100 dilutions in 0.02M sodium phosphate buffered saline and 0.02% sodium azide [PBSA], pH 6.5) were preincubated with the respective GTF for 1 hour at 37° C. in a total volume of 0.04 ml PBSA. Then 1.7 mg sucrose, 44 nCi of [^14C-glucose]-sucrose (approximately 100,000 cpm) were added in 0.2 ml PESA in the presence of 37 μg of dextran T10 (Pharmacia). Incubation proceeded for 18 hours at 37° C., after which water-insoluble glucan was collected on Whatman GF/F glass fiber filters, washed with PBSA, and radioactivity determined as described in Smith et al. (Infect. Immunity 62:5470-5476 (1994)).

S. mutans SJ32 = assay: Protection experiments: caries assessment (modified Keyes method) after S. mutans infection; type: in vivo, Sprague-Dawley rats; settings: both experiments
Text: Experimental Protocol for Protection Experiments: Animals used in the present experiments were derived from germ-free Sprague-Dawley rats that had been reared in the isolator facility of Charles River Laboratories, Wilmington, Mass. (Area 051). […] These rats served as initial breeding stock for dams used in these experiments and were regularly monitored for absence of mutans streptococci. The progeny of the dams used for the present experiments were weaned at approximately 21 days and were subsequently fed high sucrose Diet 2000.
as §3
Caries assessment: The extent and depth of carious lesions in all rat molar teeth (caries score) were microscopically evaluated by a modified Keyes method as previously described (Taubman et al., J. Immunol. 118:710-720 (1977)). Caries scores were determined separately on smooth and on sulcal dental surfaces.

AND peptide construct = biological target: T3, AND peptide construct (Streptococcus mutans serotype c, UniProt P08987); assay: Cross-reactivity ELISA, plates coated with AND peptide construct; type: binding; settings: day 63 sera; FIG. 4
T3 construct: GGY and AND were 19-mer peptides; purchased Applied Diagnostics, Foster City, Calif; host or cells: chemical solid phase synthesis
T3 sequence (P08987 whole entry, looked up): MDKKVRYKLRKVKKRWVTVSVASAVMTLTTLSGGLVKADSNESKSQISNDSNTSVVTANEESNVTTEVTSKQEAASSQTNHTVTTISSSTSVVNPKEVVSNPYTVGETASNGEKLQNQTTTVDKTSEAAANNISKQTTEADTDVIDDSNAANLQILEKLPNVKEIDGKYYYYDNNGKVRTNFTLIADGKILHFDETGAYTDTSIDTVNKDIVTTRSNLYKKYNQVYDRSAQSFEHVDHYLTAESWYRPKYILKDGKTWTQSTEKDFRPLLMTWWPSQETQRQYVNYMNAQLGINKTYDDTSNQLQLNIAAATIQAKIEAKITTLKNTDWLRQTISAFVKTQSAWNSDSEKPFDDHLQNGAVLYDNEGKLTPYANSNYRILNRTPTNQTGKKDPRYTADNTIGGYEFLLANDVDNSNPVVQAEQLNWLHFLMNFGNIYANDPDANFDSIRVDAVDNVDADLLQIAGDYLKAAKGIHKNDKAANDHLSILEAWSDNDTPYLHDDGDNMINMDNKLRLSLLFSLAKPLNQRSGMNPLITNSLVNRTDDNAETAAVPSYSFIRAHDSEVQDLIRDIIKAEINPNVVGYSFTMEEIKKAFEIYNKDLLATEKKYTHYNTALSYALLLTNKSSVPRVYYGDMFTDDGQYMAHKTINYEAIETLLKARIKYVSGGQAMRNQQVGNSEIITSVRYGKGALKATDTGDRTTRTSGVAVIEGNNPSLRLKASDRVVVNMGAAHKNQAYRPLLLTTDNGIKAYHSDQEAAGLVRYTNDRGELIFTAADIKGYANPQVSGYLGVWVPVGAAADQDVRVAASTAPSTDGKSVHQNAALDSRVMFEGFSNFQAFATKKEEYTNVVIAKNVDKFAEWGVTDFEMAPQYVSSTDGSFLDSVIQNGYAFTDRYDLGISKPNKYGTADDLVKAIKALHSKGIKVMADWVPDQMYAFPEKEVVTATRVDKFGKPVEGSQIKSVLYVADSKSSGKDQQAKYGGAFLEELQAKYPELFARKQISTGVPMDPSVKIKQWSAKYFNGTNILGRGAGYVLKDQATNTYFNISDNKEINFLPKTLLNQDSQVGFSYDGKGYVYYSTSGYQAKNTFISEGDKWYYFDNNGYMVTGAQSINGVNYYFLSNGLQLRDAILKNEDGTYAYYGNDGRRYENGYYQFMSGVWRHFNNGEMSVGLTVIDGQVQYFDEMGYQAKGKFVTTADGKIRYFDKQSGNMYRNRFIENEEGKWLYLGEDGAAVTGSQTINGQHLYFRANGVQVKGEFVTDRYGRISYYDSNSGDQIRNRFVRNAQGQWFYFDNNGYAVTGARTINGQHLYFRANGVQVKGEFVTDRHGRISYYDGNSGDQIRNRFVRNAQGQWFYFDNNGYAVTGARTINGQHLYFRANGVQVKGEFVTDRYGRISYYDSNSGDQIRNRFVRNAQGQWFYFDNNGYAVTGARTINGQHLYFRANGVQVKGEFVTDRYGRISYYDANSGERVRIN
Description: as §1, §6

[5] = test system: experimental dental caries; settings: Taubman et al. Infect. Immun. 63:3088-3093 (1995); protocol similar to experiment 1; cited from earlier work
anti-GGY serum = assay: Epitope mapping by ELISA inhibition, anti-GGY serum on GGY-coated plates; type: binding, rat; settings: anti-GGY serum preincubated with heptamer or intact peptide; FIG. 8
Description: Epitope Mapping: B cell epitopes were mapped on the GGY and AND peptides by an ELISA inhibition technique. Anti-GGY or anti-AND sera were preincubated with 13 separate heptamers representing the incremental peptide sequence of the respective peptide, or with intact peptide, followed by the conventional ELISA with intact peptide-coated plates. B cell epitopes were indicated by a significant reduction in absorbance.

[6] = protection experiment 1, pre-infection

ANDVDNSNPVVQ [SAND]
immunogenicity (percentage of animals responding and titer of responding sera) ([1]; immunogenicity experiment): weakly immunogenic

ANDVDNSNPVVQAEQLNWL
immunogenicity (percentage of animals responding and titer of responding sera) ([1]; immunogenicity experiment): at least as high as observed for the positive control CAT peptide
effect of subsequent immunization on serum IgG titers ([1]; immunogenicity experiment, day 21 (one injection) vs day 63 (three injections)): increased serum IgG titers in all AND-injected rats
serum IgG antibody to the inciting antigen after the first injection ([1]; immunogenicity experiment, rats 43 days old at start, 50 μg sc in CFA, day 21): induced serum IgG antibody to the inciting antigen after the first injection in all rats
Serum IgG antibody levels to the AND construct [1, 6]: not significantly elevated
levels of serum IgG antibody (in words) ([1]; protection experiment 1, weanling rats, two injections eight days apart, bled 14 days after onset (day 39 of life)): little detectable antibody
rats with significant levels of salivary IgA antibody ([2]; day 21 (one injection)): 7/9
rats with significant levels of salivary IgA antibody ([2]; day 63 (three injections)): 8/9
salivary IgA antibody levels to the AND construct [2, 6]: not significantly elevated
IgG antibody reactivity with intact S. sobrinus GTF (S. sobrinus GTF [3]): significant reactivity with GTF
GTF reactivity compared with antibody induced by the other peptides (S. sobrinus GTF [3]): significantly more reactive with GTF
reaction of serum IgG antibody with the CAT peptide (CAT peptide construct): low but significant reaction
reaction of antisera with the GGY peptide construct (GGY peptide construct): reaction with antisera induced by AND was observed
inhibition of formation of water-insoluble glucan from sucrose by S. sobrinus GTF (in words) (S. sobrinus GTF [4]; 63 day sera from injected rats, AND p<0.01, FIG. 5): inhibited GTF activity
level of inhibitory activity compared with other immunogens (S. sobrinus GTF [4]; 63 day sera, AND vs CAT p<0.02): exceeded that observed with sera from rats similarly immunized with CAT
mean and median total, smooth surface, and occlusal caries scores vs sham-injected group (S. mutans SJ32): lower than the respective scores of the sham-injected group

CAT: 21-mer peptide containing Asp 451, residues 442-462 of S. mutans GTF-B; positive control (DANFDSIRVDAVDNVDADLLQ) [reference compound]
IgG antibody reactivity with intact S. sobrinus GTF (S. sobrinus GTF [3]): significant reactivity with GTF
reaction of serum IgG antibody with the AND peptide construct (AND peptide construct): significant reaction
protective effect against experimental dental caries [5]: a significant protective effect was shown

FLLANDV
inhibition of GGY antibody binding to intact peptide-coated plates (anti-GGY serum): significantly inhibited

LLANDVD
inhibition of GGY antibody binding to intact peptide-coated plates (anti-GGY serum): significantly inhibited
